Measurements as given in ChEMBL document CHEMBL5725996, “Heteroaryl substituted pyridyl compounds useful as kinase modulators” (2017).

Target: T1, Interleukin-1 receptor-associated kinase 4 (Homo sapiens, UniProt Q9NWZ3)
T1 sequence (Q9NWZ3 whole entry): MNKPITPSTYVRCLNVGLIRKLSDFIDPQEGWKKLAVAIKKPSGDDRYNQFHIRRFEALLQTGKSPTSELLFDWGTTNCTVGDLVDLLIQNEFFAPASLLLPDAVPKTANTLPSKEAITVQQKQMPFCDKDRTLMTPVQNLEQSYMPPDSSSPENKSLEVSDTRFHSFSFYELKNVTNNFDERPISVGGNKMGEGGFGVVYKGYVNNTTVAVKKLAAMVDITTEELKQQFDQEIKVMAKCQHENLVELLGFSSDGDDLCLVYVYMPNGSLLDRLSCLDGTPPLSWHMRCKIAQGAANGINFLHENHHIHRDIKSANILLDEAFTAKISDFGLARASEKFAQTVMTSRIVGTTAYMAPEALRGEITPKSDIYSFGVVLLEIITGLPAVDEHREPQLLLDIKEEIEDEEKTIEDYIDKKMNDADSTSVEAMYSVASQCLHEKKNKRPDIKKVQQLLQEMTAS
Assay: Inhibition Assay: The assays were performed in U-bottom 384-well plates. […] The reaction was initiated by the combination of IRAK4 with substrates and test compounds. The reaction mixture was incubated at room temperature for 60 min. and terminated by adding 45 μL of 35 mM EDTA to each sample. […] The final concentrations of reagents in the assays are ATP, 500 μM; FL-[…] peptide 1.5 μM; IRAK4, 0.6 nM; and DMSO, 1.6%.

Row | Compound | IC50
1 | CS[C@H]1CC[C@H](NC(=O)c2cnc(Nc3ncc(C#N)cc3F)cc2NC(C)C)CC1 | 12.5 nM
2 | CCNC(=O)[C@H]1CC[C@H](NC(=O)c2cnc(Nc3ncc(C#N)cc3F)cc2NC(C)C)CC1 | 9.4 nM
3 | CNC(=O)[C@H]1CC[C@H](NC(=O)c2cnc(Nc3ccc(C#N)cn3)cc2NC(C)C)CC1 | 5.6 nM
4 | CC(C)(O)[C@H](F)CNC(=O)c1cnc(Nc2ncncc2Cl)cc1NC1CC1 | 5.5 nM
5 | CC(C)Nc1cc(Nc2ncc(C#N)cc2Cl)ncc1C(=O)NC1CCC(C(C)(C)O)CC1 (stereo unspecified) | 4.1 nM
6 | CC(C)Nc1cc(Nc2ccc(C#N)cn2)ncc1C(=O)NC1CCC(O)(c2ccnn2C)CC1 (stereo unspecified) | 4.6 nM
7 | COC[C@H](F)CNC(=O)c1cnc(Nc2ncc(C#N)cc2F)cc1NC(C)C | 12.6 nM
8 | CC(C)Nc1cc(Nc2nc(OC3CCNCC3)ncc2Cl)ncc1C(=O)NC[C@@H](F)C(C)(C)O | 19.9 nM
9 | CC(C)(O)[C@H](F)CNC(=O)c1cnc(Nc2ncc(C#N)cc2Cl)cc1NC1CCOCC1 | 2.1 nM
10 | CC(C)(O)CNc1cc(Nc2ncc(C#N)cc2Cl)ncc1C(=O)NC[C@@H](F)C(C)(C)O | 9.3 nM
11 | CC(=O)N[C@H]1CC[C@H](NC(=O)c2cnc(Nc3ncncc3Cl)cc2NC(C)C)CC1 | 16.8 nM
